Measured values published in patent US5618837A, “PDGF antagonists III” (ZymoGenetics, Inc., priority 1995, dated 1997).

How the values were obtained:
[1] = test system: bFGF-induced SRE-luciferase expression in SWISS3T3 cells; assay: SRE-luciferase reporter antagonist assay, bFGF induction; format: cell-based; conditions: 2.0 ng/ml bFGF; SWISS3T3/KZ67-G1-6 cells; 5 hours at 37° C.
Protocol: (§1) Initial characterization of Brefeldin A as a non-peptide PDGF antagonist was made possible through an SRE-Luciferase high through-put assay system which identifies substances that are able to block expression of a serum response element (SRE)-luciferase reporter gene expressed in SWISS3T3 cells. […] The degree of antagonist specificity can be determined by comparing the resultant signal for the three growth factors (PDGF, bFGF, and EGF). […]
(§2) Folowing induction, luciferase activity was measured using a Promega luciferase assay kit (E1500; Promega Corp., Madison, Wis.) according to the assay kit protocol. […] The amount of luminescence (relative light units, RLU) was determined following a 1 second mix and a 1-3 integration of signal. Basal (uninduced) luciferase signal was substracted from all measurements,and the luciferase signal induced by test samples was expressed as a percentage of the signal from the controls. […]

[2] = test system: EGF-induced SRE-luciferase expression in SWISS3T3 cells; assay: SRE-luciferase reporter antagonist assay, EGF induction; format: cell-based; conditions: 4.5 ng/ml EGF; SWISS3T3/KZ67-G1-6 cells; 5 hours at 37° C.
Protocol: as §1, §2

[3] = test system: 125I-PDGF-BB binding to rat SMCs; assay: Inhibition of 125I-PDGF-BB binding to rat smooth muscle cells; conditions: 4° C.; for % Control Binding: negative control = 100, 90 min; for 125I PDGF-BB Bound (CPM): specific cpm, nonspecific subtracted, negative control 10006
Protocol: Brefeldin A was analyzed for the ability to inhibit ^125 I-PDGF-BB binding to monolayers of rat SMCs. SMCs were plated at approximately 20,000 cells/well in 24-well culture dishes. The cells were used for assay 2-7 days after plating. The test compound was diluted in binding media (500 ml Hams F-12 (Gibco BRL), 12 ml 1M Hepes pH 7.4, 5 ml 100X PSN, 1 gm rabbit serum albumin (Sigma Chemical Co., St. Louis, Mo.) to the concentrations shown in Table 2, then added to the SMCs (1 ml/well) in triplicate. To the wells was then added 50 μl of a ^125 I-PDGF-BB binding stock solution. Binding media alone was used as the negative control, and the addition of 200 ng/ml of PDGF-BB was used to determine nonspecific binding for ^125 I-PDGF-BB. The cells were incubated for approximately 11/2 hours at 4° C., then washed with binding media to remove unbound ligand. The cells were then incubated with extraction buffer (20 mM Tris-HCl pH 8.0, 100 mM NaCl, 1 mM EDTA, 0.5% sodium deoxycholate, 10 mM NaI, 1% bovine serum albumin), and the extracts were harvested and counted in a gamma counter. The data are presented as specific cpm bound for ^125 I-PDGF-BB. Nonspecific binding, determined by the addition of 200 ng/ml of unlabeled PDGF-BB, was 853 cpm, and has been subtracted from the data presented.

[4] = test system: PDGF-BB mitogenic activity on baboon smooth muscle cells; assay: Inhibition of PDGF-BB mitogenic activity on baboon smooth muscle cells ([3H] thymidine incorporation); format: cell-based
Protocol: Brefeldin A was analyzed for the ability to inhibit the mitogenic activity of PDGF on baboon smooth muscle cells. All mitogenesis assays performed on baboon vascular smooth muscle cells (BVSMCs) were done on primary cultures of cells between passages 13 and 20 in culture. The initial cultures were established from outgrowth of aortic tissue explants. Baboon smooth muscle cells were plated at approximately 20,000 cells per well, in DMEM supplemented with 10% fetal calf serum, into 24-well culture dishes. One day prior to use the culture media was removed, and 1 ml of Mito Media (Table 3) was added to each well to allow the cells to become quiescent. At the time of the experiment the cells were stimulated with PDGF-BB. […] 20X stock solutions were made for each of the PDGF concentrations by dilution in 10 mM acetic acid containing 0.25% albumin, and 50 μl of PDGF or dilution vehicle alone was added to the culture wells. To analyze the activity of Brefeldin A to neutralize PDGF-BB mitogenic activity, 1 ng/ml of PDGF was added to wells along with dilutions of Brefeldin A. The cells were incubated with the test samples for approximately 20 hours at 37° C. Fifty μl of a 20x stock solution was then added to each well to give a final concentration of 1 μCi/ml. The cells were incubated for 4 hours at 37° C., washed with PBS, then harvested with trypsin and counted for [^3 H] thymidine incorporation in a Wallac (Turku, Finland) Betaplate™ liquid scintillation counter. […] As part of this same experiment, the inhibitory potency of Brefeldin A was analyzed in the presence of heparin to determine if heparin is able to act in a combinatorial manner with Brefeldin A for inhibiting PDGF-BB mitogenic activity. Baboon smooth muscle cells were incubated in Brefeldin A with 1 ng/ml PDGF-BB in the presence of 0.5 U/ml of unfractionated heparin. The cells were pulse-labeled with [^3 H] thymidine as described above, and the level of [^3 H] thymidine incorporation was determined.

## CC1CCCC=CC2CC(O)CC2C(O)C=CC(=O)O1 (centres unmarked) [Brefeldin A, 1,6,7,8,9,11a,12,13,14,14a-Decahydro-1,13-dihydroxy-6-methyl-4H-cyclopent[f]oxacyclotridecin-4-one]
[1]
  bFGF EC50: No activity
[2]
  EGF EC50: No activity
[3]; 50 μM
  % Control Binding: 92%
  125I PDGF-BB Bound (CPM): 9199 CPM
[3]; 100 μM
  % Control Binding: 89%
  125I PDGF-BB Bound (CPM): 8879 CPM
[4]; 1 ng/ml PDGF-BB
  PDGF-BB mitogenic activity inhibition (in words): inhibited by Brefeldin A in a dose dependent fashion
[4]; 12.5 nM, 1 ng/ml PDGF-BB
  3H Thymidine (CPM Incorporated), (+) 0.5 U/ml Heparin: 854 CPM
  3H Thymidine (CPM Incorporated), (-) Heparin: 1293 CPM
[4]; 25 nM, 1 ng/ml PDGF-BB
  3H Thymidine (CPM Incorporated), (+) 0.5 U/ml Heparin: 684 CPM
  3H Thymidine (CPM Incorporated), (-) Heparin: 798 CPM
[4]; 50 nM, 1 ng/ml PDGF-BB
  3H Thymidine (CPM Incorporated), (+) 0.5 U/ml Heparin: 44 CPM
  3H Thymidine (CPM Incorporated), (-) Heparin: 36 CPM
[4]; 100 nM, 1 ng/ml PDGF-BB
  3H Thymidine (CPM Incorporated), (+) 0.5 U/ml Heparin: 31 CPM
  3H Thymidine (CPM Incorporated), (-) Heparin: 39 CPM
[4]; Papio anubis, 1 ng/ml PDGF-BB, baboon smooth muscle cells, read-out: ED50 for the inhibition of PDGF-BB mitogenic activity
  IC50: ~25 nM
[4]; baboon SMC mitogenesis vs rat SMC binding, fold lower
  doses inhibiting PDGF-BB mitogenic activity versus doses required to inhibit PDGF binding to rat SMCs: 1000 fold
[4]; with 0.5 U/ml unfractionated heparin, 1 ng/ml PDGF-BB, versus Brefeldin A alone
  inhibition of [3H] thymidine on addition of heparin (in words): further inhibition of [^3 H] thymidine above that achieved by Brefeldin A alone

B1: PDGF-BB: platelet derived growth factor (protein, UniProt P01127 82-190, looked up)
Platelet-derived growth …: SLGSLTIAEPAMIAECKTRTEVFEISRRLIDRTNANFLVWPPCVEVQRCSGCCNNRNVQCRPTQVQLRPVQVRKIEIVRKKPIFKKATVTLEDHLACKCETVAAARPVT
[4]; PDGF-BB standard curve, 0.062 ng/ml
  3H Thymidine (CPM Incorporated), (-) Heparin: 120 CPM
[4]; PDGF-BB standard curve, 0.125 ng/ml
  3H Thymidine (CPM Incorporated), (-) Heparin: 226 CPM
[4]; PDGF-BB standard curve, 0.25 ng/ml
  3H Thymidine (CPM Incorporated), (-) Heparin: 392 CPM
[4]; PDGF-BB standard curve, 0.5 ng/ml, 0 ng/ml gives 74
  3H Thymidine (CPM Incorporated), (-) Heparin: 959 CPM
[4]; PDGF-BB standard curve, 1 ng/ml
  3H Thymidine (CPM Incorporated), (-) Heparin: 1701 CPM
